ChEMBL document CHEMBL1201862, “PubChem BioAssay data set” (2004)
One block for each molecule: values may come before it. Activity calls are given as the source filed them.

What was measured:
[1] = MC4R antagonists, dose response, counter-screen for LGR2 antagonist project, cell-based, plate reader, cherry pick (AID 743444); assay type: functional;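 further: transfected HEK 293 cells stimulated with alpha-MSH peptide; potency of inhibitors of the alpha-MSH evoked signal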
[2] = A549 cell cytotoxicity, dose response, cytotoxicity control, plate reader, cherry-pick, antagonist series (AID 743412); assay type: functional, cell-based
[3] = LGR2 antagonists, dose response, cell-based, HEK293, CRE-luciferase reporter, cherry pick, set 2 (AID 743343); assay type: functional;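 further: transfected cells were stimulated with diluted bursicon conditioned medium after compound addition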
[4] = cells; assay type: functional, cell-based
[5] = system: HEK293; assay: inhibitors of LMP1-driven NF-kB reporter, dose response, cell-based, HEK293, luciferase, cherry-pick (AID 588343); assay type: functional; details: Homo sapiens
[6] = target: T1, Nuclear receptor subfamily 0 group B member 1 (Homo sapiens, UniProt P51843); assay type: functional, cell-based;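 further: HEK293T cells transfected with SF-1 and DAX-1 plus StAR promoter luciferase reporter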
T1 sequence (P51843 whole entry): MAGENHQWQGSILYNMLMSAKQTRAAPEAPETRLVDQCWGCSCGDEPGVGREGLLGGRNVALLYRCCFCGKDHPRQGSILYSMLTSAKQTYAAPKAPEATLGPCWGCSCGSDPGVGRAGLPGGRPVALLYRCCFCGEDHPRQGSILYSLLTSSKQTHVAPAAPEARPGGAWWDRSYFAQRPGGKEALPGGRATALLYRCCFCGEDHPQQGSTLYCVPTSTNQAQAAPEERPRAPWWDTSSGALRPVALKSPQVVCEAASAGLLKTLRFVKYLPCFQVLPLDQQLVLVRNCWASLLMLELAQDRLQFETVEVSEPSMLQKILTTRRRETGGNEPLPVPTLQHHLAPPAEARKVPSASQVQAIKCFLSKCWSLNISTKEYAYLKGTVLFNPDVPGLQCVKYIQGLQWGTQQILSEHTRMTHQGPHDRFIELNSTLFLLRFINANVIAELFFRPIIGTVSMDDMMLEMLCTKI

[7] = target: T2, Sentrin-specific protease 7 (Homo sapiens, UniProt Q9BQF6); assay type: functional;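 further: Luminescence-based dose-response confirmation of ultra-high-throughput screening hits, measuring inhibition of SENP7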
T2 sequence (Q9BQF6 whole entry): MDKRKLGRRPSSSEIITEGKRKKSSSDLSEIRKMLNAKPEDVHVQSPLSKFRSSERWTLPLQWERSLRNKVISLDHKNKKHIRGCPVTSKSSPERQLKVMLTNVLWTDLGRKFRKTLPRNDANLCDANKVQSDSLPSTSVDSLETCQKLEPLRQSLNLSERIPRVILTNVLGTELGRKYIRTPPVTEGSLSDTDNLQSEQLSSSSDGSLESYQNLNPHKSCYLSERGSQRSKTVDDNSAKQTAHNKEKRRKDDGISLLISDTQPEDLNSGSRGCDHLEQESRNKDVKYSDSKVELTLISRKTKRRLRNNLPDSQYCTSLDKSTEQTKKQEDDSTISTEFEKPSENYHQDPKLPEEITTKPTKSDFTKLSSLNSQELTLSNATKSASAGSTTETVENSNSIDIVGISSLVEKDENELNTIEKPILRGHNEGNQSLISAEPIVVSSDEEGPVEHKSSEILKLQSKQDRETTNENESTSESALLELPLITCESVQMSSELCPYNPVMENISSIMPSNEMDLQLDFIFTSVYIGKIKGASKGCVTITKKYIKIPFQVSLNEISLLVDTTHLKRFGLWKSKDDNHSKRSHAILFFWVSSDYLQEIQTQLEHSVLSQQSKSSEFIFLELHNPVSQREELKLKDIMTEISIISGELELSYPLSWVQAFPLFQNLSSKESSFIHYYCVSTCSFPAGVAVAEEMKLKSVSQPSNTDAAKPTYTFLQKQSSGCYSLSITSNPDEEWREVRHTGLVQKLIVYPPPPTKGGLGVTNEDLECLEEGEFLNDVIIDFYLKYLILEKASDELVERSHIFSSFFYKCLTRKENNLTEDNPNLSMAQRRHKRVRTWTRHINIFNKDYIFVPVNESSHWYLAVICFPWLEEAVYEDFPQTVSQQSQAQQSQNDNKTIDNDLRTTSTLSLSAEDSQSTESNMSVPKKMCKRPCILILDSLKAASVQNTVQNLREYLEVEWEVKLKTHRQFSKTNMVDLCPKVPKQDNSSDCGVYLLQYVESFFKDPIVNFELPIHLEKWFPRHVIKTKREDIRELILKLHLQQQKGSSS

[8] = target: T3, Sentrin-specific protease 8 (Homo sapiens, UniProt Q96LD8); assay type: functional;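 further: luminescence read-out of SENP8 inhibition, dose-response confirmation following an ultra-high-throughput screen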
T3 sequence (Q96LD8 whole entry): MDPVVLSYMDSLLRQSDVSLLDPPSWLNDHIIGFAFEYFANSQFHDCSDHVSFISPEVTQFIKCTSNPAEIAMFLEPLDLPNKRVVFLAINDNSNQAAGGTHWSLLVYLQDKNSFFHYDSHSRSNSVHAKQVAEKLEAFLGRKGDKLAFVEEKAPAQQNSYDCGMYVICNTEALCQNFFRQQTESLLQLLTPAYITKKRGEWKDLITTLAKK

[9] = target: T4, Sentrin-specific protease 6 (Homo sapiens, UniProt Q9GZR1); assay type: functional;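 further: Luminescence-based dose-response confirmatory assay of SENP6 inhibition, following up an ultra-high-throughput screen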
T4 sequence (Q9GZR1 whole entry): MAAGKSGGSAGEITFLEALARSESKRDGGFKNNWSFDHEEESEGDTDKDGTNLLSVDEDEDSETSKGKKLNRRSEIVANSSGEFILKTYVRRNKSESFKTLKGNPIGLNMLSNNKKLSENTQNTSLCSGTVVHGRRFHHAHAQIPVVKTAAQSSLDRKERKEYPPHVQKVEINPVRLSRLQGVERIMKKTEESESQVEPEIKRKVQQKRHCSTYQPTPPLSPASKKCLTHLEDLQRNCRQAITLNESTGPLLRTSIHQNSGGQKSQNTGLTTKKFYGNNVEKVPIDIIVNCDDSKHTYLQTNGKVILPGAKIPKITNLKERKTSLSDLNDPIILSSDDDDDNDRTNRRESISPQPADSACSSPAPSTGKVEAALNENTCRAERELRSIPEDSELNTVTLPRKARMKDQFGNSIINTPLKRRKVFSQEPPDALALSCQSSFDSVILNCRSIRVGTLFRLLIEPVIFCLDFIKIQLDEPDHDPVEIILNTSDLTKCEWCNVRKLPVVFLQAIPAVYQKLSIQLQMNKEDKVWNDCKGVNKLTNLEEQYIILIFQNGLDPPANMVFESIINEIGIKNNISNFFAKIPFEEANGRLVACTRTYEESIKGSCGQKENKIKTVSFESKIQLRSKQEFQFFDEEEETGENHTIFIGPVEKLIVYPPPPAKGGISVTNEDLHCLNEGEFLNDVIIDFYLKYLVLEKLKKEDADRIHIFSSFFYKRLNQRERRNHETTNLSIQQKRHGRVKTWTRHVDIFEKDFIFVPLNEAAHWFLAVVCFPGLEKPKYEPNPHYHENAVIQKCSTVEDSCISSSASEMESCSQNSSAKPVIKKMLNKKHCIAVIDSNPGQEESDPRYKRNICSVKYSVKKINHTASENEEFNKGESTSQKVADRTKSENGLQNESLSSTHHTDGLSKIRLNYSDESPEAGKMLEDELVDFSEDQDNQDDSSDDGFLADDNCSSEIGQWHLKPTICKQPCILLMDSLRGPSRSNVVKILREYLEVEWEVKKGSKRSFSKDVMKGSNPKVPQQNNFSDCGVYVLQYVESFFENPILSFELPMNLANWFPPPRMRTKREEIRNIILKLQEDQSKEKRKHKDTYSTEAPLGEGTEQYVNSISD

[10] = target: T5, Caspase-3 (Homo sapiens, UniProt P42574); assay type: functional;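 further: Dose-response selectivity test against caspase-3 for candidate inhibitors of sentrin-specific proteases (SENPs)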
T5 sequence (P42574 whole entry): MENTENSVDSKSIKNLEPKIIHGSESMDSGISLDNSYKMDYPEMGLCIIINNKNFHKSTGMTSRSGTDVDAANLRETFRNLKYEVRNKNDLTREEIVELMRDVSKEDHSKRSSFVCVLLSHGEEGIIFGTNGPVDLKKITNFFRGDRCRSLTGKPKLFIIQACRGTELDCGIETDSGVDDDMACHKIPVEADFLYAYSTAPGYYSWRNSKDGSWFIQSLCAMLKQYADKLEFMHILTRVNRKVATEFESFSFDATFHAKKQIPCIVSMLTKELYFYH

[11] = cytotoxicity toward DRD oncogenic fibroblasts, dose response, cell-based, non-viral oncogenic, luminescence (AID 1934); assay type: functional; details: Homo sapiens
[12] = system: BJ; assay: cytotoxicity toward BJ-TERT fibroblasts, dose response, cell-based, RAS-independent, luminescence (AID 1933); assay type: functional; details: Homo sapiens
[13] = system: BJ; assay: cytotoxicity toward Ras-transformed BJeLR fibroblasts, dose response, cell-based, alamar blue fluorescence, cherrypicked samples (AID 2631); assay type: functional; details: Homo sapiens;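 further: confirmatory dose-response assay in RAS-dependent BJ fibroblasts engineered with TERT, LT and ST, with cytotoxicity read by fluorescence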
[14] = target: T6, Microphthalmia-associated transcription factor (Homo sapiens, UniProt O75030); assay: TRPM1 promoter luciferase signal decrease, dose response, MITF inhibitor project, cell-based, SK-MEL-5, cherry-picked, set 3 (AID 493073); assay type: functional
T6 sequence (O75030 whole entry): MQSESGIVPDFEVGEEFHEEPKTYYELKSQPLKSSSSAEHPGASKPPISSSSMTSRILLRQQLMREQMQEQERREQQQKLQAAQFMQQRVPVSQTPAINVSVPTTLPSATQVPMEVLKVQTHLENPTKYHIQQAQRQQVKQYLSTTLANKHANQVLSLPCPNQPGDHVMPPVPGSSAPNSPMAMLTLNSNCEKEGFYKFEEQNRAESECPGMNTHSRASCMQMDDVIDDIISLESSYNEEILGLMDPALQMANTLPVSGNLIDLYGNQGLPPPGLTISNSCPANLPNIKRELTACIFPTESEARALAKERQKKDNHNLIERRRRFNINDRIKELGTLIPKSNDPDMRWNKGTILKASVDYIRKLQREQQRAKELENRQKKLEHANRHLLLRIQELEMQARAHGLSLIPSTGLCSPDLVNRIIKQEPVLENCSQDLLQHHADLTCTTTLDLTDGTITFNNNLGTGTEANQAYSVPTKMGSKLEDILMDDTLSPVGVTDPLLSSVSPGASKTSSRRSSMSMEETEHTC

[15] = system: BJ; assay: cytotoxicity toward BJ-TERT-LT-ST fibroblasts, dose response, cell-based, RAS-independent, luminescence (AID 1935); assay type: functional; details: Homo sapiens;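 further: BJ fibroblasts immortalized with TERT plus LT and ST oncogenes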
[16] = system: BJ; assay: cells; assay type: functional, cell-based; details: Homo sapiens
[17] = system: INS1; assay: beta cell apoptosis inhibitors, cytokine rescue, dose response, luminescence, retest (AID 449756); assay type: functional, cell-based; details: Rattus norvegicus;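 further: cell death triggered by IL-1 beta plus TNF-alpha plus IFN-gamma mixture; protective hits raise ATP signal compared with cytokine alone wells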
[18] = target: Large T antigen (Simian virus 40, UniProt P03070); assay type: functional, Betapolyomavirus macacae;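 further: Confirmatory-stage PubChem screen for compounds that inhibit SV40 T antigen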
Large T antigen, sequence (P03070 whole entry): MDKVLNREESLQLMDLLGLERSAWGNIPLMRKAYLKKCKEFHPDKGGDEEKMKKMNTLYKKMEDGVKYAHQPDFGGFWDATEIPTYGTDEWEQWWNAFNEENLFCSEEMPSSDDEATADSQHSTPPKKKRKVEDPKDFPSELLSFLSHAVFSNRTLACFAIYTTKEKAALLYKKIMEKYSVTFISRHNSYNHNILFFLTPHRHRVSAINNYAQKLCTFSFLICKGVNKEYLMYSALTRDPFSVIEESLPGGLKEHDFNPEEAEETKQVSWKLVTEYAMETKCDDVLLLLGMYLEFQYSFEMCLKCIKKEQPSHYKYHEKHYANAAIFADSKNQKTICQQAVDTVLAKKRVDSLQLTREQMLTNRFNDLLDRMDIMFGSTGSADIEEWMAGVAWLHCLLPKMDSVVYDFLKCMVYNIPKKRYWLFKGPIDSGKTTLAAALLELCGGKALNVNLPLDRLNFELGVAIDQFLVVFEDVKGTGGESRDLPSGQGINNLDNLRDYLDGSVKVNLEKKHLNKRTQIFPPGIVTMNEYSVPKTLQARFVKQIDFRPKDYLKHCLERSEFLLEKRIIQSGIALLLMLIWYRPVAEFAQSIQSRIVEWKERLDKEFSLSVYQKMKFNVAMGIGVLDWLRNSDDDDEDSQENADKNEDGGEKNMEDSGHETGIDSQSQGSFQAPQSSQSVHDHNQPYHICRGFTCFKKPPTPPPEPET

[19] = target: T7, Rac GTPase-activating protein 1 (Homo sapiens, UniProt Q9H0H5); assay: MgcRacGAP GTPase-activating activity inhibitors, confirmation, biochemical, ADP Hunter fluorescence, primary and confirmatory (AID 624330); assay type: functional
T7 sequence (Q9H0H5 whole entry): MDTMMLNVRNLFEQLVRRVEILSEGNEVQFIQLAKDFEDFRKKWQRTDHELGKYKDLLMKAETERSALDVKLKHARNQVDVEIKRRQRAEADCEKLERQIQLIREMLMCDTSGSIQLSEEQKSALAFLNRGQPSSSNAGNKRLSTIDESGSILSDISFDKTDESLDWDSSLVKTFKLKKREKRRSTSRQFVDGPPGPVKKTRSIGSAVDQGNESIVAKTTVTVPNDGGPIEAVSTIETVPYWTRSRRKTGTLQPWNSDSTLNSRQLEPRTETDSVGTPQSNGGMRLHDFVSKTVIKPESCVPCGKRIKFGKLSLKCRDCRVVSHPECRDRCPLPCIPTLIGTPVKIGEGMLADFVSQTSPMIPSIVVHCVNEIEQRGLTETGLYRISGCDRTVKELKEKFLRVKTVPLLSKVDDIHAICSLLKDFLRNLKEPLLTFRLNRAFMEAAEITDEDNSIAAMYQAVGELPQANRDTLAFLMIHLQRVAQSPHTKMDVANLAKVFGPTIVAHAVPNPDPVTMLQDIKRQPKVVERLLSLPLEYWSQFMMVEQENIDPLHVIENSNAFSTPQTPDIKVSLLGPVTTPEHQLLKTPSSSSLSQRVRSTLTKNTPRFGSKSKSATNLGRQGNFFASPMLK

[20] = system: Jurkat; assay: antigen receptor-induced NF-kB inhibitors, dose response, Jurkat, luciferase reporter, luminescence, B- and T-cell (AID 489004); assay type: functional, cell-based; details: Homo sapiens;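 further: NF-kB luciferase reporter Jurkat cells stimulated with PMA plus ionomycin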
[21] = cytotoxicity in HEK-293T NF-kB-Luc cells, dose response, cytotoxicity control for B/T-cell NF-kB inhibitor project, cell-based, uHTS hits (AID 489019); assay type: functional;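 further: IC50 reflects cytotoxicity as loss of cell viability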

Structure (SMILES): CCOc1ccc(C(=O)Nc2nnc(SCC(=O)NCC3CCCO3)s2)cc1 (stereo not given)
AC50 [1]: 3.95 µM (active)
AC50 [2]: > 52 µM (inactive)
AC50 [3]: 3.43 µM (active)
IC50 [4]: > 67.5 µM (inactive)
AC50 [5]: 1.52 µM (active)
IC50 [6]: > 67.5 µM (inactive)

IC50 [7]: 7.4 µM (active)
IC50 [9]: 28.9 µM (active)
IC50 [10]: 28.3 µM (active)
Structure (SMILES): CC(C)(C)C(=O)OCc1nc(-c2ccc(F)cc2)cs1
IC50 [8]: 55.3 µM (active)

IC50 [7]: 4.7 µM (active)
IC50 [9]: > 100 µM (inactive)
IC50 [10]: 66.5 µM (active)
Structure (SMILES): Cc1ccc(CNc2c([N+](=O)[O-])nn(-c3ccc4c(c3)OCCO4)[n+]2[O-])cc1
IC50 [8]: > 100 µM (inactive)

Structure (SMILES): COc1cc(OC)cc(C(=O)N[C@H](C(=O)Nc2nc3ccccc3[nH]2)C(C)C)c1
EC50 [11]: 1.91 µM (active)
EC50 [12]: 1.48 µM (inconclusive)
EC50 [13]: 0.553 µM (active)
AC50 [14]: 2.44 µM (active)
EC50 [15]: 1.51 µM (inconclusive)
EC50 [16]: 2.73 µM (active)

IC50 [7]: 3.15 µM (active)
IC50 [9]: 3.99 µM (active)
IC50 [10]: 24.9 µM (active)
Structure (SMILES): CC(=O)Oc1cccc(/C=C2\Sc3ccccc3C2=O)c1
IC50 [8]: 3.32 µM (active)

Structure (SMILES): O=S(=O)(c1ccc(NC(=S)NCc2cccnc2)cc1)N1CCCCC1
EC50 [11]: 20.5 µM (active)
EC50 [12]: > 150 µM (not active)
EC50 [13]: 0.623 µM (active)
AC50 [17]: 1.11 µM (active)
EC50 [15]: 0.767 µM (active)
EC50 [16]: 0.594 µM (inconclusive)

Structure (SMILES): COc1cc(/C=N/NC(=S)Nc2cccc(C(=O)O)c2)ccc1O
IC50 [18]: 22.1 µM (active)
IC50 [19]: 44.9 µM (active)
AC50 [5]: 1.9 µM (active)
IC50 [20]: 7.92 µM (active)
IC50 [21]: > 80 µM (inactive)
